Tests used:
[1] = target: T1, Eukaryotic translation initiation factor 4E (Oryctolagus cuniculus, UniProt P29338); test: Inhibition of eukaryotic initiation factor 4E in micrococcal nuclease-pretreated rabbit reticulocyte lysate assessed as inhibition of m7,3'-O-GpppG-capped 5'UTRbetaglob-LUC mRNA translation by luciferase-based luminometry
[2] = target: T1, Eukaryotic translation initiation factor 4E; test: Inhibition of eukaryotic initiation factor 4E in micrococcal nuclease-pretreated rabbit reticulocyte lysate assessed as inhibition of m7,3'-O-GpppG-capped 5'UTRbetaglob-LUC mRNA translation treated 60 mins before mRNA addition by luciferase-based luminometry

T1 sequence (P29338 whole entry): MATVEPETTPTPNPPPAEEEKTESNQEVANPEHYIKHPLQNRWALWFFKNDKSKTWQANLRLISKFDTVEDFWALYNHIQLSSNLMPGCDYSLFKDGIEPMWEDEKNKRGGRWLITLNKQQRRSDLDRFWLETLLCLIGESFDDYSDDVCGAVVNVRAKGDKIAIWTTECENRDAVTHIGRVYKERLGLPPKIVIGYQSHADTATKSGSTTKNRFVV

IC50 [1]: 1440 nM
IC50 [2]: 1300 nM
SMILES: C[n+]1cn(C2OC(COP(=O)(S)OP(=O)(O)OP(=O)(O)O)C(O)C2O)c2nc(N)[n-]c(=O)c21 [2-amino-9-[(2R,3R,4S,5R)-3,4-dihydroxy-5-{[({[(phosphonatooxy)phosphinato]oxy}(sulfanidyl)phosphoryl)oxy]methyl}oxolan-2-yl]-7-methyl-6-oxido-9H-purin-7-ium]

From BindingDB's records for doi:10.1016/j.bmcl.2009.02.053 (University of Warsaw, 2009)
